The values that follow come from US20240018132A1, “5-HYDROXY-1,4-NAPHTHALENEDIONE FOR USE IN THE TREATMENT OF CANCER” (GODAVARI BIOREFINERIES LIMITED, priority 2020, published 2024).

Test [1] concerns MDAMB231. The test can be described thus: In vitro antiproliferative assay (MTT assay), breast cancer cell line. It is filed as cell-based. To be noted: Homo sapiens, MDA-MB-231, 48 h, MTT assay, breast cancer MDAMB231, 48 hrs drug incubation. On the procedure:
(§1) MTT assay is a simple and sensitive assay where, metabolic reducing activity of the cells is measured. The increase of this activity in time is taken as a parameter of cell growth. If treatment with a drug impairs this increase, the action is a consequence of growth inhibition, cell killing or both. […] All cell lines were cultured in a 37° C. incubator with a 5% CO2 environment. Compounds were dissolved in DMSO with a concentration of 0.1M (stock solution). Cells were seeded into 96-well plates at suitable plating efficiency.
(§2) Following plating efficiencies were standardized for MTT assay:
(§3) In the MTT procedure, the cells were plated in 96 well plates as per predetermined plating efficiency (Table1). The plates were then incubated for 24 hrs in 5% CO2 atmosphere at 37° C. Appropriate concentrations of the drugs were then added to the plate and further incubation was carried out for 48 hrs (in 5% CO2 atmosphere at 37° C.). The assay plate was then centrifuged twice at 3000 rpm for 3 mins and supernatant was then discarded. 100 ul of MTT solution (0.5 mg/ml) was then added to each well of the plate and it was further incubated for 4 hrs (in 5% CO2 atmosphere at 37° C.) Following 4 hr incubation, the plate was then centrifuged twice, and supernatant was aspirated off very carefully. 200 ul of DMSO was then added to each well to solubilize. MTT crystals and mixed well by shaking the plate. XY graph of log percent viability was then plotted against log drug concentration.
A general note: Tetrazolium dyes change colour on reduction, which living cells bring about.

Test [2] has as its system PC3. The test can be described thus: In vitro antiproliferative assay (MTT assay), prostate cancer cell line. It is filed as cell-based. The conditions noted are these: Homo sapiens, PC-3, 48 h, MTT assay, prostate cancer PC3, 48 hrs drug incubation. On the procedure:
as §1, §2, §3

In test [3] the test system is MDAMB231. The test can be described thus: Soft agar colony-formation assay, breast cancer. It is filed as cell-based. As for the experimental part:
(§4) The Soft Agar Colony-formation Assay is an anchorage-independent growth assay in soft agar, which is one of the most stringent assays for detecting malignant transformation of cells. For this assay, malignant cells are cultured with appropriate controls in soft agar medium for 1-2 weeks. Following this incubation period, formed colonies can either be analyzed morphologically using cell stain and quantifying the number of colonies formed.
(§5) Briefly, for Soft Agar Assay a mixture of 50 ul of 2× medium (taken appropriately as per cell line) and 50 ul of 1.2% Bacto Agar were plated on to each well of 96 well micro titer assay plate. 10 ul of cells (of specific plating efficiency pre standardized for respective cell line) were mixed with 20 ul of 2× medium and 30 ul of 0.8% of Bacto Agar and 1.6 ul of drug (of appropriate concentration) in a vial and transferred to the solidified pre layers of the assay plates. The cells were then allowed to grow and form colonies at 37° C. and 5% CO2 for 1 week. An intermittent feeding with 50 ul of appropriate 2× medium was performed after 3 days of experimental set up. 16 ul of Alamar Blue (1.5 mg/ml) was then added to all the wells to quantify the developed colonies. The plates were incubated for 24 hrs at 37° C. Absorbance was then measured at 630 nm. XY graph of log Percent viability was then plotted against log drug concentration.
(§6) Following plating efficiencies were standardized for Soft Agar Assay: […]

Test [4] has as its system PC3. The test can be described thus: Soft agar colony-formation assay, prostate cancer. The format is cell-based. On the procedure:
as §4, §5, §6

The subject of test [5] is Human lymphocytes. Nature of the test: Lymphocyte assay (MTT on normal cells). It is filed as cell-based. To be noted: Lymphocyte; human peripheral blood lymphocytes, MTT procedure. As for the experimental part: Human lymphocytes were isolated from the peripheral blood. A pure population of lymphocytes was obtained based on differential centrifugation, in which diluted defibrinated blood was layered on a solution of sodium diatrizoate and polysucrose (HiSep LSM 1077) and centrifuged at low speeds for 30 mins.
Procedure: The separation of lymphocytes from fresh defibrinated blood was performed by the procedure described below: • 1. Diluted defibrinated fresh blood was overlaid gradually on (HiSeP LSM1077) and centrifuged at low speed for 30 mins. • 2. The lymphocyte layer (the buffy coat) was carefully removed in a new collection tube. • 3. The buffy coat was given another wash, by the diluent buffer Dulbecco's phosphate buffered saline (D.P.B.S) • 4. The supernatant was discarded and the pellet was resuspended in D.P.B.S. • 5. The viability of cells was checked by Haemocytometer. • 6. Cells with purity and viability of more than 95% were taken for the experiment. • 7. Purified lymphocytes were diluted at a concentration of 0.7 million/ml with sterile D.P.B.S and MTT procedure was performed exactly as described earlier.

Test [6] relates to MDAMB231. Nature of the test: In vitro sphere-forming assay (cancer stem cells), Mammosphere media. To be noted: for 3D sphere count of MDAMB231: Mammosphere media, 2000 cells/well, n = 6 ± S.D.
Test [7] has as its system PC3. Nature of the test: In vitro sphere-forming assay (cancer stem cells), Prostosphere media. To be noted: for 3D sphere count of PC3: Prostosphere media, 2000 cells/well, n = 6 ± S.D.
Where [8] appears, read: Homo sapiens, MDA-MB-231, read-out: % Viability of spheres (MDAMB231).
Where [9] appears, read: Homo sapiens, PC-3, read-out: % Viability of spheres (PC3).

`CCN(CC)CCNC(=O)COc1cccc2c1C(=O)C=C(Nc1ccc(OC)cc1)C2=O` [Formula 72]: the IC50 in test [1] amounted to 1.01 µM; in test [2] it was 0.743 µM; in test [3] (Homo sapiens, MDA-MB-231, 168 h, Soft Agar Assay, 1 week, Alamar Blue), 3.72 µM; in test [4] (Homo sapiens, PC-3, 168 h, Soft Agar Assay, 1 week, Alamar Blue) it was 0.6 µM; in test [5] it was 33 µM. In test [3] (FIG. 51, MDAMB231), the “anticancer activity in comparison with cisplatin, soft agar, breast cancer cell line” value was “higher anticancer activity in comparison with cisplatin”. Moreover, the “anticancer activity in comparison with cisplatin, soft agar, prostate cancer cell line” value in test [4] (FIG. 52, PC3) is listed as “higher anticancer activity in comparison with cisplatin”. In addition, the viability at 0.0025 µM in test [6] (setting [8]) was found to be 84%; in test [7] (setting [9]), 81%. Besides, the results for the viability at 0.025 µM in test [6] (setting [8]) and in test [7] (setting [9]) were 67% and 63%, respectively. The viability at 0.25 µM turned out to be 48% in test [6] (setting [8]) and 46% in test [7] (setting [9]). In addition, the values for the viability at 2.5 µM in test [6] (setting [8]) and in test [7] (setting [9]) were 33% and 36%, respectively. Also, the viability at 25 µM in test [6] (setting [8]) came out at 19%; in test [7] (setting [9]) it was 16%. Moreover, the “3D sphere count of MDAMB231” value was 60(±3) in test [6] (drug 0.0025 uM); 48(±3) in test [6] (drug 0.025 uM); 34(±3) in test [6] (drug 0.25 uM); 24(±2) in test [6] (drug 2.5 uM); 14(±3) in test [6] (drug 25 uM). Also, the “3D sphere count of PC3” value in test [7] (drug 0.0025 uM) is 65(±3); in test [7] (drug 0.025 uM) it was 51(±3); in test [7] (drug 0.25 uM) it was 37(±3); in test [7] (drug 2.5 uM), 29(±2); in test [7] (drug 25 uM), 13(±3).

Regarding `O=C(O)CCCOc1cccc2c1C(=O)C=C(Nc1ccc3c(c1)OCO3)C2=O` [Formula 70], the IC50 in test [1] was found to be 3.02 µM; in test [2], 2.23 µM; in test [5], 5.41 µM. Moreover, the figures for the viability at 0.0025 µM in test [6] (setting [8]) and in test [7] (setting [9]) were 86% and 95%, respectively. In addition, the viability at 0.025 µM in test [6] (setting [8]) came to 74%; in test [7] (setting [9]), 67%. Also, the viability at 0.25 µM in test [6] (setting [8]) is 62%; in test [7] (setting [9]) it was 50%. The viability at 2.5 µM in test [6] (setting [8]) and in test [7] (setting [9]) was 41% in each case. Further, the viability at 25 µM turned out to be 24% in test [6] (setting [8]) and 31% in test [7] (setting [9]). Besides, the “3D sphere count of MDAMB231” value in test [6] (drug 0.0025 uM) is given as 71(±3); in test [6] (drug 0.025 uM), 61(±3); in test [6] (drug 0.25 uM) it was 51(±3); in test [6] (drug 2.5 uM), 34(±3); in test [6] (drug 25 uM), 20(±2). Also, the “3D sphere count of PC3” value in test [7] (drug 0.0025 uM) is reported as 78(±2); in test [7] (drug 0.025 uM), 55(±2); in test [7] (drug 0.25 uM) it was 41(±3); in test [7] (drug 2.5 uM), 34(±4); in test [7] (drug 25 uM), 25(±3).

`O=C1C(c2ccc3c(c2)OCO3)=CC(=O)c2c(OCCCC(=O)N3CCOCC3)cccc21` [Formula 69]: the IC50 in test [1] turned out to be 2.75 µM; in test [2], 2.12 µM; in test [5], 12.1 µM. In addition, the figures for the viability at 0.0025 µM in test [6] (setting [8]) and in test [7] (setting [9]) were 86% and 93%, respectively. For the same compound, the viability at 0.025 µM in test [6] (setting [8]) worked out at 70%; in test [7] (setting [9]) it was 65%. The viability at 0.25 µM in test [6] (setting [8]) amounted to 57%; in test [7] (setting [9]), 49%. The viability at 2.5 µM in test [6] (setting [8]) and in test [7] (setting [9]) was 35% throughout. Besides, the viability at 25 µM was determined as 19% in test [6] (setting [8]) and 21% in test [7] (setting [9]). Besides, the “3D sphere count of MDAMB231” value is reported as 71(±3) in test [6] (drug 0.0025 uM); 58(±3) in test [6] (drug 0.025 uM); 47(±3) in test [6] (drug 0.25 uM); 29(±3) in test [6] (drug 2.5 uM); 16(±2) in test [6] (drug 25 uM). Further, the “3D sphere count of PC3” value in test [7] (drug 0.0025 uM) was 76(±3); in test [7] (drug 0.025 uM), 53(±3); in test [7] (drug 0.25 uM) it was 40(±2); in test [7] (drug 2.5 uM), 29(±2); in test [7] (drug 25 uM) it was 17(±3).

As for `O=C1C(c2ccc3c(c2)OCO3)=CC(=O)c2c(OCCN3CCOCC3)cccc21` [Formula 1, 5-(2-morpholinoethoxy)-2-(benzo[d][1,3]dioxol-6-yl)naphthalene-1,4-dione], the results for the IC50 in test [1], in test [2] and in test [5] were 0.656 µM, 0.579 µM and 1.49 µM, respectively. The viability at 0.025 µM in test [6] (setting [8]) was 83%; in test [7] (setting [9]), 80%. Besides, the viability at 0.25 µM in test [6] (setting [8]) and in test [7] (setting [9]) was 62% in each case. For the same compound, the viability at 2.5 µM in test [6] (setting [8]) amounted to 44%; in test [7] (setting [9]) it was 45%. Further, the viability at 25 µM stood at 31% in test [6] (setting [8]) and 30% in test [7] (setting [9]). For the same compound, the figures for the viability at 250 µM in test [6] (setting [8]) and in test [7] (setting [9]) were 13% and 16%, respectively. The “3D sphere count of MDAMB231” value is 64(±5) in test [6] (drug 0.025 uM); 48(±4) in test [6] (drug 0.25 uM); 34(±4) in test [6] (drug 2.5 uM); 24(±4) in test [6] (drug 25 uM); 10(±2) in test [6] (drug 250 uM). Moreover, the “3D sphere count of PC3” value in test [7] (drug 0.025 uM) was 65(±3); in test [7] (drug 0.25 uM) it was 51(±3); in test [7] (drug 2.5 uM), 37(±3); in test [7] (drug 25 uM), 25(±3); in test [7] (drug 250 uM), 13(±3).

In general, IC50 refers to the midpoint of a concentration-inhibition curve. Higher therefore signals weaker potency in that assay. The term viability denotes a per cent measure of how many cells are alive, often set against a control.
